Results published in ChEMBL document CHEMBL4190235, “Polysubstituted 2-aminoimidazoles as anti-biofilm and antiproliferative agents: Discovery of potent lead” (Eur J Med Chem, 2017).

Key:
Pseudomonas aeruginosa [1] = test: Antibiofilm activity against Pseudomonas aeruginosa PA14 after 24 hrs by crystal violet staining based method; assay type: functional
Pseudomonas aeruginosa [2] = test: Inhibition of planktonic growth of Pseudomonas aeruginosa PA14 cells; assay type: organism-based
Salmonella typhimurium [3] = test: Antibiofilm activity against Salmonella typhimurium ATCC 14028 after 24 hrs by crystal violet staining based method; assay type: functional, Salmonella enterica subsp. enterica serovar Typhimurium
Salmonella typhimurium [4] = test: Inhibition of planktonic growth of Salmonella typhimurium ATCC 14028; assay type: organism-based, Salmonella enterica subsp. enterica serovar Typhimurium; conditions: Salmonella enterica
Staphylococcus aureus [5] = test: Antibiofilm activity against Staphylococcus aureus SH1000 after 48 hrs by crystal violet staining based method; assay type: functional
Staphylococcus aureus [6] = test: Inhibition of planktonic growth of Staphylococcus aureus SH1000; assay type: organism-based
A-375 = test: Antiproliferative activity against human A375 cells after 48 hrs by MTT assay; assay type: functional, cell-based; conditions: A-375, 48 h
MIA PaCa-2 = test: Antiproliferative activity against human MIAPaCa2 cells after 48 hrs by MTT assay; assay type: functional, cell-based; conditions: MIA PaCa-2, 48 h

| IC50 (A-375) | IC50 (MIA PaCa-2) | Compound | MBIC50 (Pseudomonas aeruginosa [1]) | IC50 (Pseudomonas aeruginosa [2]) | MBIC50 (Salmonella typhimurium [3]) | IC50 (Salmonella typhimurium [4]) | MBIC50 (Staphylococcus aureus [5]) | IC50 (Staphylococcus aureus [6]) |
| --- | --- | --- | --- | --- | --- | --- | --- | --- |
| 2.4 µM | 5.2 µM | COc1ccc(Cc2nc(N)n(CC(=O)Nc3ccc(C)cc3)c2-c2ccccc2Br)cc1 | 8.9 µM | 24.6 µM | 6.3 µM | 50.5 µM | 8.2 µM | 16.1 µM |
| 24.3 µM | 61.4 µM | Nc1nc(CC2CCCC2)c(-c2ccccc2Br)n1CC(=O)Nc1ccccc1 | >400 µM | > 400 µM | >400 µM | > 400 µM | >400 µM | > 400 µM |
| 5.7 µM | 8.6 µM | CCCCCCc1nc(N)n(CC(=O)Nc2ccccc2)c1-c1ccccc1Br | 50.7 µM | 119 µM | 35.7 µM | > 400 µM | 6.6 µM | 16.3 µM |
| 2.5 µM | 9.2 µM | Cc1ccc(Cc2nc(N)n(CC(=O)Nc3ccccc3)c2-c2ccccc2Br)cc1 | >400 µM | > 400 µM | >400 µM | > 400 µM | >400 µM | > 400 µM |
| 5.8 µM | 6.9 µM | Nc1nc(CC2CC2)c(-c2ccccc2Br)n1CC(=O)Nc1ccccc1 | 86.3 µM | 155 µM | 107.6 µM | > 400 µM | 29.2 µM | 130 µM |
| 5.2 µM | 5.7 µM | Nc1nc(Cc2ccccc2)c(-c2ccccc2Br)n1CC(=O)Nc1ccccc1 | >400 µM | > 400 µM | >400 µM | > 400 µM | >400 µM | > 400 µM |

Further lines, the compound ahead of its results:

| Compound | IC50 (A-375) | IC50 (MIA PaCa-2) | MBIC50 (Pseudomonas aeruginosa [1]) | IC50 (Pseudomonas aeruginosa [2]) | MBIC50 (Salmonella typhimurium [3]) | IC50 (Salmonella typhimurium [4]) | MBIC50 (Staphylococcus aureus [5]) | IC50 (Staphylococcus aureus [6]) |
| --- | --- | --- | --- | --- | --- | --- | --- | --- |
| CC(C)(C)c1ccc(Cc2nc(N)n(CC(=O)NCc3ccccc3)c2-c2ccccc2Br)cc1 | – | – | >400 µM | > 400 µM | >400 µM | > 400 µM | >400 µM | > 400 µM |
| O=C(OC[C@H]1O[C@@H](OC(=O)c2cc(O)c(O)c(OC(=O)c3cc(O)c(O)c(O)c3)c2)[C@H](OC(=O)c2cc(O)c(O)c(OC(=O)c3cc(O)c(O)c(O)c3)c2)[C@@H](OC(=O)c2cc(O)c(O)c(OC(=O)c3cc(O)c(O)c(O)c3)c2)[C@@H]1OC(=O)c1cc(O)c(O)c(OC(=O)c2cc(O)c(O)c(O)c2)c1)c1cc(O)c(O)c(OC(=O)c2cc(O)c(O)c(O)c2)c1 [TANNIC ACID] | – | – | 27.7 µM | > 400 µM | 18.8 µM | > 400 µM | 115.3 µM | > 400 µM |
| O=c1cc(-c2ccccc2)oc2cc(O)c(O)c(O)c12 [BAICALEIN] | – | – | >400 µM | > 400 µM | >400 µM | > 400 µM | 77.5 µM | > 400 µM |
| CCCCCCCc1nc(N)n(CC(=O)Nc2ccc(C)cc2)c1-c1ccccc1Br | 5.2 µM | 7 µM | 291.1 µM | 190 µM | 37.7 µM | > 400 µM | 14.4 µM | 22.8 µM |
| COc1ccc(NC(=O)Cn2c(N)nc(Cc3ccc(C(C)(C)C)cc3)c2-c2ccccc2Br)cc1 | – | – | >400 µM | > 400 µM | 231.2 µM | > 400 µM | 11.5 µM | 37.2 µM |
| CCCCCCc1nc(N)n(CC(=O)Nc2ccc(C)cc2)c1-c1ccccc1Br | 5.1 µM | 6.5 µM | 29.5 µM | 49.6 µM | 21.8 µM | > 400 µM | 12.6 µM | 23.1 µM |
| Cc1ccc(NC(=O)Cn2c(N)nc(CC3CCCC3)c2-c2ccccc2Br)cc1 | 47.8 µM | 80.5 µM | >400 µM | > 400 µM | >400 µM | > 400 µM | 289.6 µM | > 400 µM |
